Molecules are shown by their SMILES.

One experiment relates to Aβ production in Chinese hamster ovary cells that over-express human APP695 with the London and Swedish mutations. Put plainly: Cellular Aβ IC50 determination (Aβ40 sandwich ELISA). Format: cell-based. Conditions: Cricetulus griseus; Aβ40 content after 24 h incubation, CHO cells over-expressing human APP695. The protocol:
Cellular Aβ IC50 Determinations. The potency of compounds against memapsin 2 catalytic activity was determined in a cellular assay of Aβ production. […] Chinese hamster ovary cells that over-express human APP695 with the London and Swedish mutations were seeded in multi-well plates at 10% confluency. Compounds are dissolved in DMSO to concentrations near 1 mM, and diluted into culture media to a final concentration near 4 μM (final 0.4% DMSO). Compounds were diluted serially and applied to cells in multi-well plates 48 h after seeding. Incubation was continued in 5% CO2 at 37 degrees C. for 24 h. Aliquots were removed and assayed for Aβ40 content using a sandwich ELISA (BioSource International). Amount of Aβ40 over the range of concentration of compounds, relative to control incubations, were fit to a 4-parameter IC50 model.
In general terms: In an ELISA, binding on a coated surface is turned into a signal by an enzyme label.
As for `Cc1nc(CN(C)C(=O)c2cccc(C(=O)N[C@@H](Cc3ccccc3)[C@H](O)C3NCCN(Cc4ccccc4)C3=O)c2)cs1` (single isomer, unassigned) [Example 11a], the concentration for half-maximal inhibition (IC50) (in general, the concentration at which inhibition is half-maximal) was < 10 µM.

The target in another experiment is memapsin 2 (Homo sapiens (Human), UniProt P56817). Put plainly: Inhibition of memapsin 2 catalytic activity toward fluorogenic substrate FS-2. Format: biochemical. Conditions: memapsin 2, pH 4, 37° C., 20 minutes pre-incubation, tight-binding model. The protocol: Inhibition of Memapsin 1, Memapsin 2, and Cathepsin D Catalytic Activity. A substrate peptide H3N-ELDLAVEFWHDR—CO2 (SEQ ID NO:1) (used for inhibition assay of memapsin 2, memapsin 1, and cathepsin D) was dissolved at 2 mg/mL in DMSO and diluted 1:100 in 0.1 M sodium acetate, pH 4.0 just prior to assay. Inhibitor dissolved in DMSO was diluted into 0.1 M sodium acetate, pH 4.0 (1:100 dilution). A 50 μL aliquot of the inhibitor solution in pH 4 buffer was combined with 150 μL of 0.1 M sodium acetate containing 100-200 nM of memapsin 1, memapsin 2, or cathepsin D. Following a pre-incubation at 37° C., the proteolytic assay was initated by addition of 50 μl of the substrate diluted into pH 4 buffer, and incubation continued at 37° C. Aliquots were removed at time intervals, and combined with an equal volume of MALDI-TOF matrix ([…] in acetone, 20 mg/mL) and immediately spotted in duplicate onto a stainless-steel MALDI sample plate. MALDI-TOF mass spectrometry was performed on a PE Biosystems Voyager DE instrument at the Molecular Biology Resource Center on campus. The instrument was operated at 25,000 accelerating volts in positive mode with a 150 ns delay. Ions with a mass-to-charge ratio (m/z) were detected in the range of 650-2000 atomic mass units. Data were analyzed by the Voyager Data Explorer module to obtain ion intensity data for mass species of substrates and corresponding products in a given mixture. Relative product formation was calculated as the ratio of signal intensity of the product to the sum of signal intensities of both product and the corresponding substrate. Relative product formed per unit time was obtained from non-linear regression analysis of the data representing the initial 15% formation of product using the model: 1−e^−kT where k was the relative hydrolytic rate constant and T was time in seconds. Alternatively, relative hydrolytic rates were determined using a fluorogenic cleavage assay (Ermolieff, J. et al., Biochemistry, 39: 12450-12456 (2000)). Initial rates from either method were expressed relative to uninhibited controls and the inhibition constant Ki was determined by a non-linear fit to a tight-binding model of competitive inhibition (Bieth, J., Bayer—Symposium V. Proteinase Inhibitors, pp 463-469, Spinger-Varlag, Berlin (1994)). Results are shown in
memapsin 2, sequence (P56817 46-501): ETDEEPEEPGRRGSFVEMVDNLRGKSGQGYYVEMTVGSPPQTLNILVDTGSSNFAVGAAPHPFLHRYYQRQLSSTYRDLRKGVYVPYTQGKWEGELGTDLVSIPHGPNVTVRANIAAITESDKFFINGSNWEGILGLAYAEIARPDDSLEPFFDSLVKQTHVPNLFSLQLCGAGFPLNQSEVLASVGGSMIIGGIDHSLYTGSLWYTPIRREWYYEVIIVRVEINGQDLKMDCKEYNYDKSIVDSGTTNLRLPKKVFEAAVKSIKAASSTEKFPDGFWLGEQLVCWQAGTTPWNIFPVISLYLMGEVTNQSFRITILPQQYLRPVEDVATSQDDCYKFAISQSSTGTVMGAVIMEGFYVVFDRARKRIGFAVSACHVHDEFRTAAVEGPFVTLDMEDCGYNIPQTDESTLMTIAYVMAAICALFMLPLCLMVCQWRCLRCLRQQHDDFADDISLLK
Inhibition of Memapsin 2. The potencies of compounds were determined by measurement of their inhibition of memapsin 2 catalytic activity toward a fluorescent substrate. Kinetic inhibition experiments were performed using the procedure as described in Ermolieff, et al. Biochemistry 39:12450-12456 (2000), the teachings of which are incorporated hereby in their entirety. Briefly, assays were performed at pH 4, 37° C., by pre-incubation of memapsin 2 enzyme with compound for 20 minutes. Activity measure was initiated by addition of a fluorogenic substrate FS-2 (Bachem Americas, Torrance, Calif.). Fluorescent signal increase over time was measured as a rate of hydrolysis of the peptide substrate. Inhibition of hydrolytic rate was expressed relative to uninhibited controls and fit to a model for tight-binding inhibitors (J. Bieth, in “Proteinase Inhibitors,” Bayer Symposium V, 463-469, 1974).
Take `Cc1nc(CN(C)C(=O)c2cccc(C(=O)N[C@@H](Cc3ccccc3)[C@H](O)C3NCCN(Cc4ccccc4)C3=O)c2)cs1` (single isomer, unassigned) [Example 11a]: the Ki – broadly, the equilibrium dissociation constant of an inhibitor or competing ligand from its target – is < 1000 nM.
`Cc1nc(CN(C)C(=O)c2cccc(C(=O)N[C@@H](Cc3ccccc3)[C@H](O)C3NCCN(Cc4ccccc4)C3=O)c2)cs1` (single isomer, unassigned) [Example 11b]: the inhibition constant (Ki) was > 10000 nM.
Consider `COc1cccc(C[C@@H]2CC[C@H]([C@@H](O)CNC(=O)c3cc(C(=O)N[C@H](C)c4ccccc4)cc(N(C)S(C)(=O)=O)c3)N2C(=O)OC(C)(C)C)c1` [Comparison compound A, reference compound], for which the Ki is > 1000 nM.
As for `COc1cccc(C[C@@H]2CC[C@H]([C@@H](O)CNC(=O)c3cc(C(=O)N[C@H](C)c4ccccc4)cc(N(C)S(C)(=O)=O)c3)N2)c1` [Comparison compound B, reference compound], the Ki is > 10000 nM.
For `C[C@@H](NC(=O)c1cc(C(=O)N[C@@H](Cc2ccccc2)[C@H](O)C2NCCN(Cc3ccccc3)C2=O)cc(N(C)S(C)(=O)=O)c1)c1ccccc1` (some centres unmarked) [Example 10], the Ki is < 10000 nM.
Same read-out and setting: the figure for `C[C@@H](NC(=O)c1cc(C(=O)N[C@@H](Cc2ccccc2)[C@H](O)C2Cc3ccccc3CN2)cc(N(C)S(C)(=O)=O)c1)c1ccccc1` (some centres unmarked) [GRL-0196-AL] is > 10000 nM; for `Cc1csc([C@H]2CCCN2C(=O)c2cccc(C(=O)N[C@@H](Cc3ccccc3)[C@H](O)[C@@H]3NCCN(Cc4ccccc4)C3=O)c2)n1` [GRL-0299] it is < 1000 nM.
With `Cc1csc([C@H]2CCCN2C(=O)c2cccc(C(=O)N[C@@H](Cc3ccccc3)[C@H](O)[C@@H]3NCCN(CC(C)C)C3=O)c2)n1` [GRL-0669AL], the Ki was < 1000 nM.
`COc1ccc(CN2CCN[C@@H]([C@@H](O)[C@H](Cc3ccccc3)NC(=O)c3cccc(C(=O)N4CCC[C@@H]4c4nc(C)cs4)c3)C2=O)cc1` [GRL-0819AL]: the Ki is < 1000 nM.
On to `CC(C)CN1CCN[C@@H]([C@@H](O)[C@H](Cc2ccccc2)NC(=O)c2cc(C(=O)N[C@H](C)c3ccccc3)cc(N(C)S(C)(=O)=O)c2)C1=O` [GRL-0849AL], for which the Ki was < 1000 nM.
Consider `COc1ccc(CN2CCN[C@@H]([C@@H](O)[C@H](Cc3ccccc3)NC(=O)c3cc(C(=O)N[C@H](C)c4ccccc4)cc(N(C)S(C)(=O)=O)c3)C2=O)cc1` [GRL-0889AL], for which the Ki was < 1000 nM.
In the case of `COc1cccc(CN2CCN[C@@H]([C@@H](O)[C@H](Cc3ccccc3)NC(=O)c3cccc(C(=O)N4CCC[C@@H]4c4nc(C)cs4)c3)C2=O)c1` [GRL-1069AL], the Ki is < 1000 nM.
On to `COc1cccc(CN2CCN[C@@H]([C@@H](O)[C@H](Cc3ccccc3)NC(=O)c3cc(C(=O)N[C@H](C)c4ccccc4)cc(N(C)S(C)(=O)=O)c3)C2=O)c1` [GRL-1079AL], for which the Ki was < 1000 nM.

The values above are taken from patent publication US8703947B2, “Compounds for treatment of Alzheimer's disease” (Purdue Research Foundation, priority 2008, dated 2014).
